Assays:
MV-4-11 xenograft = test: Antitumor activity in rats bearing MV-4-11 xenografts; assay type: in vivo
Procedure: Next, we evaluated the antitumor activity of a high-dose administration of TAS1553 and cytarabine in rats bearing MV-4-11 xenografts. […] The rats were treated with cytarabine for 5 days at 16 and 32 mg/kg. […] In addition to the hematologic tumor, we evaluated the antitumor activity of TAS1553 in mice implanted with HCC38 cell line as a solid tumor model. […] Finally, TAS1553 was evaluated for its survival benefit in a mouse model. To achieve this, we established mice bone marrow cells harboring the human MLL-AF9 fusion gene, which is known as a driver gene for AML in humans as well as mice[48].
For the subcutaneous implantation model of MV-4-11, F344/NJcl-rnu/rnu rats were irradiated with X-ray (4 Gy) to improve the efficiency of xenograft implantation. Two days after X-ray irradiation, MV-4-11 cells suspended in PBS with 50 vol% Matrigel were inoculated into the rats (2 × 10^7 cells/animal). In the mice subcutaneous implantation model, HCC38 cells suspended same as above were inoculated into male BALB/cAJcl-nu/nu mice (1 × 10^7 cells /body). […] Antitumor activity and body weight change were evaluated as previously reported. Dunnett test using the SAS software package in EXSUS (CAC Croit) was used to compare the tumor volume (P < 0.05).

[1] = molecular target: T1, RNR (R1 and R2 recombinant proteins) (Homo sapiens, UniProt P23921); test: RNR assay (formation of dCDP from CDP); assay type: biochemical; details: CDP to dCDP; mean ± SD; read-out: Enzyme IC50
T1 construct: made in house; host or cells: Escherichia coli
T1 sequence (P23921 1-792): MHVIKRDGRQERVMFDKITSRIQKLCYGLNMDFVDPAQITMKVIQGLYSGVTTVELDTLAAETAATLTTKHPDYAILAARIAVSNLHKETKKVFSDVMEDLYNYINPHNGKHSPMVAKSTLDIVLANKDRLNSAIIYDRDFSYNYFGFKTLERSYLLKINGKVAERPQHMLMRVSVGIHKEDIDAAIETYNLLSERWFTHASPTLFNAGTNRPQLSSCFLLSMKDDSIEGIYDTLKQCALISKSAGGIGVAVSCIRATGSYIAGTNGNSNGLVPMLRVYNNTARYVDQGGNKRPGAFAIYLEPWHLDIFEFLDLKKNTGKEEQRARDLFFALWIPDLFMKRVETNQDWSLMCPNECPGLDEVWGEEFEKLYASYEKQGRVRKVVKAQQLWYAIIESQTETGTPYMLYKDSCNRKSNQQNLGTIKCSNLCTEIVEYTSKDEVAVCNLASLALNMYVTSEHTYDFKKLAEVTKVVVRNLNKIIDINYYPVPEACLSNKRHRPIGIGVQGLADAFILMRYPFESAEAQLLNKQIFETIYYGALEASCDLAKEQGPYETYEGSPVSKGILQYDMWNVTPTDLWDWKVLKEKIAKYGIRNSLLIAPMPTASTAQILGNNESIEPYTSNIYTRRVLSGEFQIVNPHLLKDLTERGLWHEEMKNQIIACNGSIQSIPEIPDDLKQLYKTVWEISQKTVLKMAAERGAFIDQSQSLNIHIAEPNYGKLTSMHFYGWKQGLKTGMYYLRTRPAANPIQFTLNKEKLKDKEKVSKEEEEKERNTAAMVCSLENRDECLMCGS
Procedure: The binding affinity of TAS1553 to the R1 subunit was investigated using surface plasmon resonance (SPR) binding analysis. […] Next, we evaluated the inhibitory effect of TAS1553 against the enzymatic activity of RNR, consisting of R1 and R2 recombinant proteins. RNR activity was determined by its ability to reduce cytidine diphosphate (CDP) to deoxycytidine diphosphate (dCDP), based on a previous report. […] In addition to the inhibitory effect on RNR, TAS1553 was evaluated in a Eurofins LeadProfilingScreen panel assay including 68 proteins, such as ion channels, transporters, nuclear receptors, and G protein-coupled receptors, to examine its potential adverse activity.
The inhibition of RNR activity by the test compound was evaluated by measuring the formation of dCDP from CDP, as reported previously. The assay was performed for 30 min at 37 °C in a reaction mixture composed of 50 mmol/L HEPES, 4 mmol/L magnesium acetate, 100 mmol/L KCl, 6 mmol/L DTT, 2 mmol/L ATP, 0.24 mmol/L NADPH, 10.0 µmol/L CDP, 0.1 mg/mL BSA, 8.0 µg/mL His-R1, 2.4 µg/mL His-R2, and 1% DMSO with or without test compound. The reaction was discontinued by heat treatment at 95 °C for 5 min. The amount of dCDP after the reaction was quantified by a prominence HPLC system and LabSolutions software (SHIMADZU CORPORATION). Separations were performed at 265 nm in a Shim-pack XR-ODS column of particle size 2.2 μm (100 × 3.0 mm, SHIMADZU GLC Ltd.). Overall, 5 µL of each sample was injected, and chromatography was performed at 40 °C. Mobile A was composed of 10 mmol/L potassium dihydrogenphosphate, 10 mmol/L tetrabutylammonium hydroxide, 0.25% methanol and 8 mmol/L HCl. Mobile B was composed of 50 mmol/L potassium dihydrogenphosphate, 5.6 mmol/L tetrabutylammonium hydroxide, and 30% methanol. The gradient was as follows: 52–60% B for 9 min, 60–99% B for 1 min, 99% B for 5 min, 99–52% B for 1 min, and 52% B for 5 min. The flow rate was 0.5 mL/min. The experiment was performed in triplicates. IC50 values were calculated using the SAS software package.

[2] = 400 mg/kg oral once daily for 14 days

Compound: Cc1ccc(F)c([C@@H](C)[C@H](NS(=O)(=O)c2ccc(Cl)cc2C(N)=O)c2n[nH]c(=O)o2)c1C [TAS1553, 5-chloro-2-{N-[(1S,2R)-2-(6-fluoro-2,3-dimethylphenyl)-1-(5-oxo-4,5-dihydro-1,3,4-oxadiazol-2-yl)propyl]sulfamoyl}benzamide]
- T/C (mean tumor volume treated/control) on Day 15 (MV-4-11 xenograft; 50 mg/kg oral once daily for 14 days): 52.0%
- T/C (mean tumor volume treated/control) on Day 15 (MV-4-11 xenograft; 100 mg/kg oral once daily for 14 days): 45.0%
- T/C (mean tumor volume treated/control) on Day 15 (MV-4-11 xenograft; 200 mg/kg oral once daily for 14 days): 29.4%
- body weight change (MV-4-11 xenograft; [2]): without a reduction in body weight
- tumor growth outcome (MV-4-11 xenograft; [2]): tumor disappearance in all the treated animals
- body weight change (MV-4-11 xenograft; 50, 100, 200 mg/kg oral once daily for 14 days): none of the groups showed any dramatic weight loss
- IC50 [1]: 54.2 ± 6.1 nM
